Reference: ChEMBL document CHEMBL1201862, “PubChem BioAssay data set” (2004)
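Test compounds were applied to cells in 96-well plates for 48 hours at 5 doses. Here, GI50 denotes the concentration required for 50% inhibition of growth.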 The source made the active and inactive calls. Cut-off read from the data, not from the text of the source: active = GI50 up to about 1.1 µM and inactive = higher.

Columns and labels:
Experiment in all cases: NCI tumour cell line growth inhibition, 48 h
SR = tested on: SR
786-0 = tested on: 786-0
SK-OV-3 = tested on: SK-OV-3
SF-268 = tested on: SF-268
ACHN = tested on: ACHN
HT-29 = tested on: HT-29
KM12 = tested on: KM12
RPMI-8226 = tested on: RPMI-8226
HL-60 = tested on: HL-60
A549 = tested on: A549
SF-295 = tested on: SF-295
UO-31 = tested on: UO-31
K562 = tested on: K562
HCC 2998 = tested on: HCC 2998
COLO 205 = tested on: COLO 205
SK-MEL-28 = tested on: SK-MEL-28
M14 = tested on: M14
TK-10 = tested on: TK-10
SF-539 = tested on: SF-539
MOLT-4 = tested on: MOLT-4

Row | Compound | GI50 (SR) | GI50 (786-0) | GI50 (SK-OV-3) | GI50 (SF-268) | GI50 (ACHN) | GI50 (HT-29) | GI50 (KM12) | GI50 (RPMI-8226) | GI50 (HL-60) | GI50 (A549) | GI50 (SF-295) | GI50 (UO-31) | GI50 (K562) | GI50 (HCC 2998) | GI50 (COLO 205) | GI50 (SK-MEL-28) | GI50 (M14) | GI50 (TK-10) | GI50 (SF-539) | GI50 (MOLT-4)
1 | C[C@]12CCC(=O)C=C1CC[C@@H]1[C@@H]2[C@@H](O)C[C@@]2(C)[C@H]1CC[C@]2(O)C(=O)COC(=O)C1CCCC1 | 43.3 µM (inactive) | > 100 µM (inactive) | > 100 µM (inactive) | > 100 µM (inactive) | > 100 µM (inactive) | 67.8 µM (inactive) | > 100 µM (inactive) | 1.63 µM (inactive) | > 100 µM (inactive) | 58.2 µM (inactive) | > 100 µM (inactive) | > 100 µM (inactive) | > 100 µM (inactive) | > 100 µM (inactive) | > 100 µM (inactive) | > 100 µM (inactive) | > 100 µM (inactive) | > 100 µM (inactive) | > 100 µM (inactive) | 
2 | CC(=O)Oc1ccc(Nn2c3ccccc3c3ccccc32)c(C)c1 | 21.7 µM (inactive) | 20.6 µM (inactive) | 40.9 µM (inactive) | 45.9 µM (inactive) |  |  | 36.6 µM (inactive) | 15.7 µM (inactive) | 22.3 µM (inactive) | 56.8 µM (inactive) | 25.8 µM (inactive) | 39.1 µM (inactive) | 32.1 µM (inactive) | 27.7 µM (inactive) | 31.7 µM (inactive) | 67.6 µM (inactive) | 29 µM (inactive) | 39.3 µM (inactive) | > 10 µM (inactive) | 23.4 µM (inactive)
3 | O=C(O)CCCCCCC[C@H]1S[C@H]1CCCCCCO | > 100 µM (inactive) | > 100 µM (inactive) | > 100 µM (inactive) | > 100 µM (inactive) |  | > 100 µM (inactive) | > 100 µM (inactive) | > 100 µM (inactive) | > 100 µM (inactive) |  | > 100 µM (inactive) | > 100 µM (inactive) | > 100 µM (inactive) | > 100 µM (inactive) | > 100 µM (inactive) | > 100 µM (inactive) | > 100 µM (inactive) | > 100 µM (inactive) | > 100 µM (inactive) | > 100 µM (inactive)
4 | Fc1cccc(C2ON=C(c3ccccc3)N2C23CC4CC(CC(C4)C2)C3)c1 (stereo unspecified) | 8.97 µM (inactive) | > 10 µM (inactive) | > 10 µM (inactive) | > 10 µM (inactive) | > 10 µM (inactive) | > 10 µM (inactive) | > 10 µM (inactive) | 8.77 µM (inactive) | > 10 µM (inactive) | > 10 µM (inactive) | > 10 µM (inactive) |  | > 10 µM (inactive) | > 10 µM (inactive) | > 10 µM (inactive) | > 10 µM (inactive) | > 10 µM (inactive) | > 10 µM (inactive) | > 10 µM (inactive) | > 10 µM (inactive)
5 | O=C1c2ccccc2C(=O)c2c1sc1nc3ccccc3n21 | 3.53 µM (inactive) | 2.15 µM (inactive) | 6.87 µM (inactive) | 1.89 µM (inactive) | 2.23 µM (inactive) | 3.9 µM (inactive) | 1.83 µM (inactive) | 1.33 µM (inactive) | 3.8 µM (inactive) | 10.7 µM (inactive) | 1.66 µM (inactive) | 2.01 µM (inactive) | 2.03 µM (inactive) | 1.73 µM (inactive) | 1.8 µM (inactive) |  | 1.73 µM (inactive) | 4.19 µM (inactive) | 1.81 µM (inactive) | 1.97 µM (inactive)
6 | COc1ccc(/C=C(\C2=NC(=O)CS2)c2nc3ccccc3[nH]2)cc1 | > 100 µM (inactive) |  | 15.8 µM (inactive) | > 100 µM (inactive) | 37.6 µM (inactive) | > 100 µM (inactive) | 35.2 µM (inactive) | > 100 µM (inactive) | > 100 µM (inactive) | > 100 µM (inactive) | 37.2 µM (inactive) | 32.7 µM (inactive) | 78.2 µM (inactive) | < 0.01 µM (active) | > 100 µM (inactive) | 87.9 µM (inactive) | 93.1 µM (inactive) | > 100 µM (inactive) | 4.6 µM (inactive) | 54.8 µM (inactive)
7 | CCCCNC(=O)OCCN=C1c2ccccc2C(Br)C(Br)c2ccccc21 (stereo unspecified) | 21.3 µM (inactive) | 14.6 µM (inactive) | 32.1 µM (inactive) | 32.3 µM (inactive) | 24.2 µM (inactive) | 12.5 µM (inactive) | 45.6 µM (inactive) | 22.5 µM (inactive) | 9.04 µM (inactive) | 83.9 µM (inactive) | 87.7 µM (inactive) |  | 29.9 µM (inactive) | > 100 µM (inactive) | 20.2 µM (inactive) | 35.4 µM (inactive) | 19.4 µM (inactive) | 25.4 µM (inactive) | 29.9 µM (inactive) | 24.9 µM (inactive)
